Experimental data: ChEMBL document CHEMBL1275552, “In vitro activities at pH 5.0 and pH 7.0 and in vivo efficacy of flucytosine against Aspergillus fumigatus” (Antimicrob Agents Chemother, 2008)
Values after ≈ are worked out from the molar mass of the structure shown. Active and inactive are the calls of the source. No cut-off for these calls is given here.

What was measured:
[1] = Half life in human; type: ADME, organism-based; conditions: in vivo
[2] = tested on: Aspergillus fumigatus; assay: Antifungal activity against flucytosine-susceptible Aspergillus fumigatus isolate AZN 58 infected in CD-1 mouse assessed as prolongation of survival at 200 mg/kg administered every 6 hrs; type: functional, organism-based; design: dose 200 mg/kg
[3] = tested on: Aspergillus fumigatus; assay: Antifungal activity against flucytosine-resistant Aspergillus fumigatus isolate AZN 58 infected in CD-1 mouse at 200 mg/kg administered every 12 hrs; type: functional, organism-based; design: dose 200 mg/kg
[4] = tested on: Aspergillus fumigatus; assay: Antifungal activity against flucytosine-susceptible Aspergillus fumigatus isolate AZN 58 infected in CD-1 mouse assessed as prolongation of survival at 100 mg/kg administered every 12 hrs; type: functional, organism-based; design: dose 100 mg/kg
[5] = tested on: Aspergillus fumigatus; assay: Antifungal activity against flucytosine-resistant Aspergillus fumigatus isolate AZN 58 infected in CD-1 mouse at 100 mg/kg administered every 6 hrs; type: functional, organism-based; design: dose 100 mg/kg
[6] = tested on: Aspergillus fumigatus; assay: Antifungal activity against flucytosine-susceptible Aspergillus fumigatus isolate AZN 58 infected in CD-1 mouse assessed as prolongation of survival at 200 mg/kg administered every 12 hrs; type: functional, organism-based; design: dose 200 mg/kg
[7] = tested on: Aspergillus fumigatus; assay: Antifungal activity against flucytosine-susceptible Aspergillus fumigatus isolate AZN 58 infected in CD-1 mouse assessed as prolongation of survival at 100 mg/kg administered every 6 hrs; type: functional, organism-based; design: dose 100 mg/kg
[8] = tested on: Aspergillus fumigatus; assay: Antifungal activity against Aspergillus fumigatus at pH 7.0 by broth microdilution method; type: functional
[9] = tested on: Aspergillus fumigatus; assay: Antifungal activity against flucytosine-resistant Aspergillus fumigatus isolate AZN 58 infected in CD-1 mouse at 100 mg/kg administered every 12 hrs; type: functional, organism-based; design: dose 100 mg/kg
[10] = tested on: Aspergillus sp.; assay: Antifungal activity against Aspergillus sp. by broth microdilution method; type: functional
[11] = tested on: Aspergillus fumigatus; assay: Antifungal activity against flucytosine-resistant Aspergillus fumigatus isolate AZN 58 infected in CD-1 mouse at 200 mg/kg administered every 6 hrs; type: functional, organism-based; design: dose 200 mg/kg
[12] = Half life in CD-1 mouse at 800 mg/kg; type: ADME, organism-based; design: dose 800 mg/kg; conditions: in vivo
[13] = tested on: Aspergillus fumigatus; assay: Antifungal activity against Aspergillus fumigatus at pH 5.0 by broth microdilution method; type: functional

Nc1nc(=O)[nH]cc1F [FLUCYTOSINE]
half-life [1]: 2.5 h | Activity [2]: Active | Activity [3]: inactive | Activity [4]: Active | Activity [5]: inactive | Activity [6]: Active | Activity [7]: Active | MIC [8]: 128 µg/mL (≈ 992 µM) | Activity [9]: inactive | MIC [10]: > 64 µg/mL | Activity [11]: inactive | half-life [12]: 0.5 h | MIC [13]: 0.125 µg/mL (≈ 0.968 µM)
